Results from patent US8093275B2, “Oxazolone and pyrrolidinone-substituted pryidine amides as P2X3 and P2X2/3 antagonists” (Roche Palo Alto LLC, priority 2009, dated 2012).

Key:
[1] = biological target: T1, human P2X2/3 receptor (Homo sapiens, UniProt P56373+Q9UBL9); test: P2X2/3 FLIPR (Fluorometric Imaging Plate Reader) assay; assay type: cell-based; conditions: CHO-K1 cells transfected with human P2X2/3; agonist α,β-meATP 5 μM; FLIPR calcium fluorescence; read-out: pKi P2X2/3 (converted)
T1 construct: expressed in transfected cells; host or cells: CHO-K1
T1 sequence (Q9UBL9 1-471): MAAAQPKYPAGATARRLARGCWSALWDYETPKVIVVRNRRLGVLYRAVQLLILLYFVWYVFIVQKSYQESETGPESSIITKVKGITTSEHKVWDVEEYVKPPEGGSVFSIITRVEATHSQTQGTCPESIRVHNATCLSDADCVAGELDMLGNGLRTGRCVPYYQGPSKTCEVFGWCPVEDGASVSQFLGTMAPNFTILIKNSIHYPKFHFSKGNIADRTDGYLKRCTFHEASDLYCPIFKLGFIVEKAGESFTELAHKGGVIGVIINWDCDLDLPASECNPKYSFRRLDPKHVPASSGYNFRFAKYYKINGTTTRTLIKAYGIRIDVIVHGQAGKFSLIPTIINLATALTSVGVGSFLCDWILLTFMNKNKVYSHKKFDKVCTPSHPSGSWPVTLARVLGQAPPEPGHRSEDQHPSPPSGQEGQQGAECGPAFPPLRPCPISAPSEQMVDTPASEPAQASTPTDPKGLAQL
T1 sequence (P56373 1-397): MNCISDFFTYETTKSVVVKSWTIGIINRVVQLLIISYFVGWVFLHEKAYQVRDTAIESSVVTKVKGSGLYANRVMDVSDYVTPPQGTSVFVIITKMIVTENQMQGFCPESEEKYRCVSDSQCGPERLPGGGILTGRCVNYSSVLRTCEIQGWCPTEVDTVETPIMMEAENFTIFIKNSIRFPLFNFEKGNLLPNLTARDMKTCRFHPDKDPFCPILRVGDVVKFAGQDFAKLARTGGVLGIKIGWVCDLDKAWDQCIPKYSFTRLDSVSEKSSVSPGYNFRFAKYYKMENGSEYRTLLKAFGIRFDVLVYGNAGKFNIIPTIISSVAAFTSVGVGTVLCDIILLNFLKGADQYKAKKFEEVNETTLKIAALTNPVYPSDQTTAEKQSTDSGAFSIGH
Protocol: (§1) CHO-K1 cells were transfected with cloned rat P2X3 or human P2X2/3 receptor subunits and passaged in flasks. 18-24 hours before the FLIPR experiment, cells were released from their flasks, centrifuged, and resuspended in nutrient medium at 2.5×10^5 cells/ml. The cells were aliquoted into black-walled 96-well plates at a density of 50,000 cells/well and incubated overnight in 5% CO2 at 37° C. On the day of the experiment, cells were washed in FLIPR buffer (calcium- and magnesium-free Hank's balanced salt solution, 10 mM HEPES, 2 mM CaCl2, 2.5 mM probenecid; FB). Each well received 100 μl FB and 100 μl of the fluorescent dye Fluo-3 AM [2 μM final conc.]. After a 1 hour dye loading incubation at 37° C., the cells were washed 4 times with FB, and a final 75 μl/well FB was left in each well.
(§2) Test compounds (dissolved in DMSO at 10 mM and serially diluted with FB) or vehicle were added to each well (25 μl of a 4× solution) and allowed to equilibrate for 20 minutes at room temperature. The plates were then placed in the FLIPR and a baseline fluorescence measurement (excitation at 488 nm and emission at 510-570 nm) was obtained for 10 seconds before a 100 μl/well agonist or vehicle addition. The agonist was a 2× solution of α,β-meATP producing a final concentration of 1 μM (P2X3) or 5 μM (P2X2/3). Fluorescence was measured for an additional 2 minutes at 1 second intervals after agonist addition. A final addition of ionomycin (5 μM, final concentration) was made to each well of the FLIPR test plate to establish cell viability and maximum fluorescence of dye-bound cytosolic calcium. Peak fluorescence in response to the addition of α,β-meATP (in the absence and presence of test compounds) was measured and inhibition curves generated using nonlinear regression. PPADS, a standard P2X antagonist, was used as a positive control.

[2] = biological target: T2, rat P2X3 receptor (Rattus norvegicus, UniProt P49654); test: P2X3 FLIPR (Fluorometric Imaging Plate Reader) assay; assay type: cell-based; conditions: CHO-K1 cells transfected with rat P2X3; agonist α,β-meATP 1 μM; FLIPR calcium fluorescence; read-out: pKi P2X3 (converted)
T2 construct: expressed in transfected cells; host or cells: CHO-K1
T2 sequence (P49654 1-397): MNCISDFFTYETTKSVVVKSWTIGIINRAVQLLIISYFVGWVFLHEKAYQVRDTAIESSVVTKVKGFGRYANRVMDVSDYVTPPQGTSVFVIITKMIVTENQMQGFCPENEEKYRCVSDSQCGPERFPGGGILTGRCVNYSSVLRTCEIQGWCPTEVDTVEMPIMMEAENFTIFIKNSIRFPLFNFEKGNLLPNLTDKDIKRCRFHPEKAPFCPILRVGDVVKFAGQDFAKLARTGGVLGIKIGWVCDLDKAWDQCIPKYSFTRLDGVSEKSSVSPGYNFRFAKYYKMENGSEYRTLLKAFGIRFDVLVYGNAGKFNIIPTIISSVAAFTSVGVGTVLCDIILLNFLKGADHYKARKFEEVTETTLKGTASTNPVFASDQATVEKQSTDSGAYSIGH
Protocol: as §1, §2

Row | Compound | Ki [1] | Ki [2]
1 | Cc1ccc(-c2cc(C(=O)NC(C)c3cnccn3)cc(N3C(=O)OC[C@H]3C(C)C)c2)nc1 (stereo partly drawn) [Compound 10, 3-((R)-4-Isopropyl-2-oxo-oxazolidin-3-yl)-5-(5-methyl-pyridin-2-yl)-N-(1-pyrazin-2-yl-ethyl)-benzamide] | 26.3 nM | 3.55 nM
2 | Cc1ccc(-c2cc(C(=O)NCc3cnc(C)cn3)cc(N3C(=O)OC[C@H]3C(C)C)c2)nc1 [Compound 11, 3-((R)-4-Isopropyl-2-oxo-oxazolidin-3-yl)-N-(5-methyl-pyrazin-2-ylmethyl)-5-(5-methyl-pyridin-2-yl)-benzamide] | 20.4 nM | 3.98 nM
3 | Cc1ccc(-c2cc(C(=O)NCc3cncnc3)cc(-n3c(=O)oc4ccccc43)c2)nc1 [Compound 12, 3-(5-Methyl-pyridin-2-yl)-5-(2-oxo-benzooxazol-3-yl)-N-pyrimidin-5-ylmethyl-benzamide] | 141 nM | 6.03 nM
4 | Cc1ccc(-c2cc(C(=O)NCc3ccc(C)nn3)cc(-n3c(=O)oc4ccccc43)c2)nc1 [Compound 13, N-(6-Methyl-pyridazin-3-ylmethyl)-3-(5-methyl-pyridin-2-yl)-5-(2-oxo-benzooxazol-3-yl)-benzamide] | 21.4 nM | 7.76 nM
5 | Cc1ccc(-c2cc(C(=O)NCc3cccnn3)cc(-n3c(=O)oc4ccccc43)c2)nc1 [Compound 14, 3-(5-Methyl-pyridin-2-yl)-5-(2-oxo-benzooxazol-3-yl)-N-pyridazin-3-ylmethyl-benzamide] | 263 nM | 8.51 nM
6 | CCC1COC(=O)N1c1cc(C(=O)N[C@@H](C)CO)cc(-c2ccc(C)cn2)c1 (stereo partly drawn) [Compound 17, 3-(4-Ethyl-2-oxo-oxazolidin-3-yl)-N-((S)-2-hydroxy-1-methyl-ethyl)-5-(5-methyl-pyridin-2-yl)-benzamide] | 4900 nM | 10.5 nM
7 | CCC1COC(=O)N1c1cc(C(=O)NC(C)c2cnccn2)cc(-c2ccc(C)cn2)c1 (stereo not drawn) [Compound 18, 3-(4-Ethyl-2-oxo-oxazolidin-3-yl)-5-(5-methyl-pyridin-2-yl)-N-(1-pyrazin-2-yl-ethyl)-benzamide] | 339 nM | 7.59 nM
8 | CCC1COC(=O)N1c1cc(C(=O)NCc2cnc(C)cn2)cc(-c2ccc(C)cn2)c1 (stereo not drawn) [Compound 19, 3-(4-Ethyl-2-oxo-oxazolidin-3-yl)-N-(5-methyl-pyrazin-2-ylmethyl)-5-(5-methyl-pyridin-2-yl)-benzamide] | 66.1 nM | 4.27 nM
9 | Cc1ccc(-c2cc(C(=O)NC(C)c3cnccn3)cc(N3C(=O)OCC3(C)C)c2)nc1 (stereo not drawn) [Compound 20, 3-(4,4-Dimethyl-2-oxo-oxazolidin-3-yl)-5-(5-methyl-pyridin-2-yl)-N-(1-pyrazin-2-yl-ethyl)-benzamide] | 123 nM | 6.31 nM
10 | Cc1ccc(-c2cc(C(=O)NC(C)c3cnccn3)cc(N3C(=O)CCC3C)c2)nc1 (stereo not drawn) [Compound 27, 3-(2-Methyl-5-oxo-pyrrolidin-1-yl)-5-(5-methyl-pyridin-2-yl)-N-(1-pyrazin-2-yl-ethyl)-benzamide] | 7760 nM | 38.9 nM
11 | Cc1ccc(-c2cc(C(=O)NCc3cnc(C)cn3)cc(N3C(=O)CCC3C)c2)nc1 (stereo not drawn) [Compound 28, 3-(2-Methyl-5-oxo-pyrrolidin-1-yl)-N-(5-methyl-pyrazin-2-ylmethyl)-5-(5-methyl-pyridin-2-yl)-benzamide] | 2040 nM | 30.2 nM
12 | Cc1ccc(-c2cc(C(=O)NCc3cnc(C)cn3)cc(N3C(=O)OCC34CC4)c2)nc1 [Compound 29, N-(5-Methyl-pyrazin-2-ylmethyl)-3-(5-methyl-pyridin-2-yl)-5-(5-oxo-6-oxa-4-aza-spiro[2.4]hept-4-yl)-benzamide] | 129 nM | 4.37 nM
13 | Cc1ccc(-c2cc(C(=O)NCc3cnc(C)cn3)cc(-n3c(=O)[nH]c4cncnc43)c2)nc1 [Compound 30, N-(5-Methyl-pyrazin-2-ylmethyl)-3-(5-methyl-pyridin-2-yl)-5-(8-oxo-7,8-dihydro-purin-9-yl)-benzamide] | 35.5 nM | 3.16 nM
14 | Cc1ccc(-c2cc(C(=O)NCc3ccc(C)nn3)cc(N3C(=O)OCC3(C)C)c2)nc1 [Compound 31, 3-(4,4-Dimethyl-2-oxo-oxazolidin-3-yl)-N-(6-methyl-pyridazin-3-ylmethyl)-5-(5-methyl-pyridin-2-yl)-benzamide] | 85.1 nM | 5.62 nM
15 | Cc1ccc(-c2cc(C(=O)NCc3ncc(C)cn3)cc(-n3c(=O)oc4ccccc43)c2)nc1 [Compound 32, 3-(5-Methyl-pyridin-2-yl)-N-(5-methyl-pyrimidin-2-ylmethyl)-5-(2-oxo-benzooxazol-3-yl)-benzamide] | 24.5 nM | 4.57 nM
16 | Cc1ccc(-c2cc(C(=O)NCc3cnc(C)nc3)cc(-n3c(=O)oc4ccccc43)c2)nc1 [Compound 33, 3-(5-Methyl-pyridin-2-yl)-N-(2-methyl-pyrimidin-5-ylmethyl)-5-(2-oxo-benzooxazol-3-yl)-benzamide] | 13.8 nM | 6.17 nM
17 | Cc1ccc(-c2cc(C(=O)N[C@@H](C)CO)cc(N3C(=O)OC[C@H]3C(C)C)c2)cc1 [Compound 38, 5-((R)-4-Isopropyl-2-oxo-oxazolidin-3-yl)-4′-methyl-biphenyl-3-carboxylic acid ((S)-2-hydroxy-1-methyl-ethyl)-amide] | 79.4 nM | 2.19 nM
18 | Cc1ccc(-c2cc(C(=O)NC(C)c3cnccn3)cc(N3C(=O)OC[C@H]3C(C)C)c2)cc1 (stereo partly drawn) [Compound 39, 5-((R)-4-Isopropyl-2-oxo-oxazolidin-3-yl)-4′-methyl-biphenyl-3-carboxylic acid (1-pyrazin-2-yl-ethyl)-amide] | 38 nM | 9.33 nM
19 | Cc1ccc(-c2cc(C(=O)NCc3cnc(C)cn3)cc(N3C(=O)OC[C@H]3C(C)C)c2)cc1 [Compound 40, 5-((R)-4-Isopropyl-2-oxo-oxazolidin-3-yl)-4′-methyl-biphenyl-3-carboxylic acid (5-methyl-pyrazin-2-ylmethyl)-amide] | 38 nM | 12.3 nM
20 | Cc1ccc(-c2cc(C(=O)NC3CC3)cc(N3C(=O)OC[C@H]3C(C)C)c2)cc1 [Compound 41, 5-((R)-4-Isopropyl-2-oxo-oxazolidin-3-yl)-4′-methyl-biphenyl-3-carboxylic acid cyclopropylamide] | 83.2 nM | 3.98 nM
21 | Cc1ccc(-c2cc(C(=O)NC(C)c3cnccn3)cc(N3C(=O)OC[C@@H]3C(C)C)c2)cc1 (stereo partly drawn) [Compound 45, 5-((S)-4-Isopropyl-2-oxo-oxazolidin-3-yl)-4′-methyl-biphenyl-3-carboxylic acid (1-pyrazin-2-yl-ethyl)-amide] | 7590 nM | 263 nM
